Laboratory results: the supplement of paper PMC10733146

Assays:
Test in all cases: viability relative to DMSO control (fraction); higher = less drug effect (more viable cells)
Settings in all cases: 48 h
BEZ235 = compound: Cn1c(=O)n(-c2ccc(C(C)(C)C#N)cc2)c2c3cc(-c4cnc5ccccc5c4)ccc3ncc21 [BEZ235]
Method in brief: (§1)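 Using 384-well plates with compounds already plated at five concentrations, one well per concentration, 4 × 10^4 primary mononuclear tumour cells were added per well. Cells were Ficoll-isolated from blood or bone marrow or came from processed lymph node, fresh or cryopreserved. They were kept for 48 h at 37 °C and 5% CO2 in RPMI-1640 supplemented with penicillin/streptomycin, L-glutamine and human serum, and viability was read as CellTiter-Glo luminescence relative to the median of 16 inner DMSO wells.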

Bortezomib = compound: CC(C)C[C@H](NC(=O)[C@H](Cc1ccccc1)NC(=O)c1cnccn1)B(O)O [Bortezomib]
Method in brief: as §1

8-Azaguanin = compound: Nc1nc2n[nH]nc2c(=O)[nH]1 [8-Azaguanin]
Method in brief: as §1

[1] = compound: OCc1ccc(-c2ccc(-c3ccc(CO)s3)o2)s1
Method in brief: as §1

Pentostatin = compound: OC[C@H]1O[C@@H](n2cnc3c2N=CNC[C@H]3O)C[C@@H]1O [Pentostatin]
Method in brief: as §1

Vorinostat = compound: O=C(CCCCCCC(=O)Nc1ccccc1)NO [Vorinostat]
Method in brief: as §1

Nelarabine = compound: COc1nc(N)nc2c1ncn2[C@@H]1O[C@H](CO)[C@@H](O)[C@@H]1O [Nelarabine]
Method in brief: as §1

Iniparib = compound: NC(=O)c1ccc(I)c([N+](=O)[O-])c1 [Iniparib]
Method in brief: as §1

AG-221 (Enasidinib) = compound: CC(C)(O)CNc1nc(Nc2ccnc(C(F)(F)F)c2)nc(-c2cccc(C(F)(F)F)n2)n1 [AG-221 (Enasidinib)]
Method in brief: as §1

MLN-120B = compound: COc1c(Cl)cc2c([nH]c3cnccc32)c1NC(=O)c1cccnc1C [MLN-120B]
Method in brief: as §1

Ribociclib = compound: CN(C)C(=O)c1cc2cnc(Nc3ccc(N4CCNCC4)cn3)nc2n1C1CCCC1 [Ribociclib]
Method in brief: as §1

EPZ-5676 = compound: CC(C)N(C[C@H]1O[C@@H](n2cnc3c(N)ncnc32)[C@H](O)[C@@H]1O)[C@H]1C[C@@H](CCc2nc3cc(C(C)(C)C)ccc3[nH]2)C1 [EPZ-5676]
Method in brief: as §1

BI6727 = compound: CC[C@@H]1C(=O)N(C)c2cnc(Nc3ccc(C(=O)N[C@H]4CC[C@H](N5CCN(CC6CC6)CC5)CC4)cc3OC)nc2N1C(C)C [BI6727]
Method in brief: as §1

Panobinostat = compound: Cc1[nH]c2ccccc2c1CCNCc1ccc(/C=C/C(=O)NO)cc1 [Panobinostat]
Method in brief: as §1

Vemurafenib = compound: CCCS(=O)(=O)Nc1ccc(F)c(C(=O)c2c[nH]c3ncc(-c4ccc(Cl)cc4)cc23)c1F [Vemurafenib]
Method in brief: as §1

Work on primary ALL patient cells (S088) yielded a viability (BEZ235; 0.024 µM) of 0.751, a viability (BEZ235; 0.12 µM) of 0.644 and a viability (BEZ235; 0.6 µM) of 0.529. The viability (BEZ235; 3 µM) was 0.427, the viability (BEZ235; 15 µM) was 0.254 and the viability (Bortezomib; 0.008 µM) was 1.02. It also gave a viability (Bortezomib; 0.04 µM) of 0.948, a viability (Bortezomib; 0.2 µM) of 0.906 and a viability (Bortezomib; 1 µM) of 0.92. For the same test system, the viability (Bortezomib; 5 µM) was 0.916, the viability (8-Azaguanin; 0.032 µM) was 0.783 and the viability (8-Azaguanin; 0.16 µM) was 0.765. It also gave a viability (8-Azaguanin; 0.8 µM) of 0.346, a viability (8-Azaguanin; 4 µM) of 0.269 and a viability (8-Azaguanin; 20 µM) of 0.174. The viability ([1]; 0.024 µM) was 0.359, the viability ([1]; 0.12 µM) was 0.306 and the viability ([1]; 0.6 µM) was 0.205. For the same test system, the viability ([1]; 3 µM) was 0.128, the viability ([1]; 15 µM) was 0.0223 and the viability (Pentostatin; 0.03 µM) was 0.809. The viability (Pentostatin; 0.15 µM) was 0.725, the viability (Pentostatin; 0.75 µM) was 0.786 and the viability (Pentostatin; 3.75 µM) was 0.669. For the same test system, the viability (Pentostatin; 18.76 µM) was 0.706, the viability (Vorinostat; 0.016 µM) was 0.991 and the viability (Vorinostat; 0.08 µM) was 0.777. The viability (Vorinostat; 0.4 µM) was 0.366, the viability (Vorinostat; 2 µM) was 0.157 and the viability (Vorinostat; 10 µM) was 0.109. The viability (Nelarabine; 0.024 µM) was 0.974, the viability (Nelarabine; 0.12 µM) was 0.98 and the viability (Nelarabine; 0.6 µM) was 0.967. It also gave a viability (Nelarabine; 3 µM) of 0.886, a viability (Nelarabine; 15 µM) of 0.75 and a viability (Iniparib; 0.024 µM) of 1.15. For the same test system, the viability (Iniparib; 0.12 µM) was 1.09, the viability (Iniparib; 0.6 µM) was 1.04 and the viability (Iniparib; 3 µM) was 1. The viability (Iniparib; 15 µM) was 0.898, the viability (AG-221 (Enasidinib); 0.024 µM) was 0.115 and the viability (AG-221 (Enasidinib); 0.12 µM) was 0.151. It also gave a viability (AG-221 (Enasidinib); 0.6 µM) of 0.435, a viability (AG-221 (Enasidinib); 3 µM) of 0.457 and a viability (AG-221 (Enasidinib); 15 µM) of 0.661. The viability (MLN-120B; 0.024 µM) was 0.199, the viability (MLN-120B; 0.12 µM) was 0.231 and the viability (MLN-120B; 0.6 µM) was 0.233. It also gave a viability (MLN-120B; 3 µM) of 0.248, a viability (MLN-120B; 15 µM) of 0.24 and a viability (Ribociclib; 0.024 µM) of 0.713. It also gave a viability (Ribociclib; 0.12 µM) of 0.679, a viability (Ribociclib; 0.6 µM) of 0.621 and a viability (Ribociclib; 3 µM) of 0.487. For the same test system, the viability (Ribociclib; 15 µM) was 0.357, the viability (EPZ-5676; 0.0032 µM) was 0.74 and the viability (EPZ-5676; 0.016 µM) was 0.922. The viability (EPZ-5676; 0.08 µM) was 0.812, the viability (EPZ-5676; 0.4 µM) was 0.874 and the viability (EPZ-5676; 2 µM) was 0.917. It also gave a viability (BI6727; 0.024 µM) of 0.796, a viability (BI6727; 0.12 µM) of 0.833 and a viability (BI6727; 0.6 µM) of 0.634. For the same test system, the viability (BI6727; 3 µM) was 0.358, the viability (BI6727; 15 µM) was 0.078 and the viability (Panobinostat; 0.00064 µM) was 0.699. It also gave a viability (Panobinostat; 0.0032 µM) of 0.266, a viability (Panobinostat; 0.016 µM) of 0.115 and a viability (Panobinostat; 0.08 µM) of 0.0993. It also gave a viability (Panobinostat; 0.4 µM) of 0.0891, a viability (Vemurafenib; 0.024 µM) of 0.986 and a viability (Vemurafenib; 0.12 µM) of 0.933. It also gave a viability (Vemurafenib; 0.6 µM) of 1.08, a viability (Vemurafenib; 3 µM) of 1.43 and a viability (Vemurafenib; 15 µM) of 1.78.

With primary MCL patient cells (S068) the viability (BEZ235; 0.024 µM) was 1.1, the viability (BEZ235; 0.12 µM) was 1.25 and the viability (BEZ235; 0.6 µM) was 1.16. It also gave a viability (BEZ235; 3 µM) of 1.45, a viability (BEZ235; 15 µM) of 0.982 and a viability (Bortezomib; 0.008 µM) of 0.942. For the same test system, the viability (Bortezomib; 0.04 µM) was 0.932, the viability (Bortezomib; 0.2 µM) was 0.964 and the viability (Bortezomib; 1 µM) was 0.982. For the same test system, the viability (Bortezomib; 5 µM) was 0.956, the viability (8-Azaguanin; 0.032 µM) was 0.911 and the viability (8-Azaguanin; 0.16 µM) was 1.01. It also gave a viability (8-Azaguanin; 0.8 µM) of 0.725, a viability (8-Azaguanin; 4 µM) of 0.486 and a viability (8-Azaguanin; 20 µM) of 0.346. It also gave a viability ([1]; 0.024 µM) of 0.705, a viability ([1]; 0.12 µM) of 0.693 and a viability ([1]; 0.6 µM) of 0.701. For the same test system, the viability ([1]; 3 µM) was 0.743, the viability ([1]; 15 µM) was 0.348 and the viability (Pentostatin; 0.03 µM) was 0.654. For the same test system, the viability (Pentostatin; 0.15 µM) was 0.644, the viability (Pentostatin; 0.75 µM) was 0.736 and the viability (Pentostatin; 3.75 µM) was 0.526. The viability (Pentostatin; 18.76 µM) was 0.448, the viability (Vorinostat; 0.016 µM) was 1.1 and the viability (Vorinostat; 0.08 µM) was 1.04. The viability (Vorinostat; 0.4 µM) was 0.459, the viability (Vorinostat; 2 µM) was 0.167 and the viability (Vorinostat; 10 µM) was 0.121. For the same test system, the viability (Nelarabine; 0.024 µM) was 0.995, the viability (Nelarabine; 0.12 µM) was 1.1 and the viability (Nelarabine; 0.6 µM) was 0.94. For the same test system, the viability (Nelarabine; 3 µM) was 0.901, the viability (Nelarabine; 15 µM) was 0.682 and the viability (Iniparib; 0.024 µM) was 1.14. It also gave a viability (Iniparib; 0.12 µM) of 1.1, a viability (Iniparib; 0.6 µM) of 1.01 and a viability (Iniparib; 3 µM) of 1.04. It also gave a viability (Iniparib; 15 µM) of 0.984, a viability (AG-221 (Enasidinib); 0.024 µM) of 0.778 and a viability (AG-221 (Enasidinib); 0.12 µM) of 0.792. It also gave a viability (AG-221 (Enasidinib); 0.6 µM) of 1.01, a viability (AG-221 (Enasidinib); 3 µM) of 1.22 and a viability (AG-221 (Enasidinib); 15 µM) of 1.73. For the same test system, the viability (MLN-120B; 0.024 µM) was 0.885, the viability (MLN-120B; 0.12 µM) was 0.872 and the viability (MLN-120B; 0.6 µM) was 0.853. It also gave a viability (MLN-120B; 3 µM) of 0.751, a viability (MLN-120B; 15 µM) of 0.593 and a viability (Ribociclib; 0.024 µM) of 0.848. For the same test system, the viability (Ribociclib; 0.12 µM) was 0.868, the viability (Ribociclib; 0.6 µM) was 0.645 and the viability (Ribociclib; 3 µM) was 0.487. It also gave a viability (Ribociclib; 15 µM) of 0.362, a viability (EPZ-5676; 0.0032 µM) of 0.98 and a viability (EPZ-5676; 0.016 µM) of 1.16. For the same test system, the viability (EPZ-5676; 0.08 µM) was 1.02, the viability (EPZ-5676; 0.4 µM) was 1.05 and the viability (EPZ-5676; 2 µM) was 1.07. For the same test system, the viability (BI6727; 0.024 µM) was 0.881, the viability (BI6727; 0.12 µM) was 0.771 and the viability (BI6727; 0.6 µM) was 0.403. The viability (BI6727; 3 µM) was 0.219, the viability (BI6727; 15 µM) was 0.13 and the viability (Panobinostat; 0.00064 µM) was 0.613. The viability (Panobinostat; 0.0032 µM) was 0.284, the viability (Panobinostat; 0.016 µM) was 0.13 and the viability (Panobinostat; 0.08 µM) was 0.105. For the same test system, the viability (Panobinostat; 0.4 µM) was 0.105, the viability (Vemurafenib; 0.024 µM) was 1.04 and the viability (Vemurafenib; 0.12 µM) was 0.988. It also gave a viability (Vemurafenib; 0.6 µM) of 1.05, a viability (Vemurafenib; 3 µM) of 1.15 and a viability (Vemurafenib; 15 µM) of 1.19.
